From paper PMC11053151, “Anti-inflammatory and anti-diabetic properties of indanone derivative isolated from Fernandoa adenophylla in vitro and in silico studies” (Scientific Reports, 2024)
pIC50: −log10 of the molar value.

Experiments:
[1] = molecular target: T1, α-amylase (porcine pancreatic amylase) (Sus scrofa, UniProt P00690); experiment: starch hydrolysis / dinitrosalicylate colorimetric alpha-amylase inhibition assay; percent inhibition at […] µg; type: biochemical
T1 construct: gene AMY2
T1 sequence (P00690 16-511): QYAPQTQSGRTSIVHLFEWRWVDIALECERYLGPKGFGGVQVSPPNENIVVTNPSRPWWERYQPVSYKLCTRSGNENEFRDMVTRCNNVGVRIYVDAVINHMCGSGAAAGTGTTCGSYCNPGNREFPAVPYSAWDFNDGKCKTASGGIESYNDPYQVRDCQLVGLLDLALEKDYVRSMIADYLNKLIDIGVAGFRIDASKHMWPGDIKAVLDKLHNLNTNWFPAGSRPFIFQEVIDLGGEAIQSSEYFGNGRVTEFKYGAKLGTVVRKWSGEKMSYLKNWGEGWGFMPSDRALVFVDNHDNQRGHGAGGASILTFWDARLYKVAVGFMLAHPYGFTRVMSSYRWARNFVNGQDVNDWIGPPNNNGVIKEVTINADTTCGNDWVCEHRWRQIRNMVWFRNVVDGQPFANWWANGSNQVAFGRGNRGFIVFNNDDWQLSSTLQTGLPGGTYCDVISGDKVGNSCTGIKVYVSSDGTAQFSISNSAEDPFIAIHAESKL

[2] = molecular target: T1, α-amylase (porcine pancreatic amylase); experiment: starch hydrolysis / dinitrosalicylate colorimetric alpha-amylase inhibition assay; type: biochemical

Structure (SMILES)	% [1]	pIC50 [2]
C[C@H]1O[C@H](O[C@H]2[C@H](O)[C@@H](O)[C@@H](O[C@H]3[C@H](O)[C@@H](O)C(O)O[C@@H]3CO)O[C@@H]2CO)[C@H](O)[C@@H](O)[C@@H]1N[C@H]1C=C(CO)[C@@H](O)[C@H](O)[C@H]1O (some centres unmarked) [acarbose]	87.08 ± 1.328%	–
COC(=O)[C@@]1(O)c2ccccc2C(=O)[C@]1(O)CC=C(C)C [indanone derivative, methyl (1R trans, 2S trans)-1,2-dihydroxy-2-(3-methylbut-2-en-1-yl)-3-oxo-2,3-dihydro-1H-indene-1-carboxylate]	–	4.33
